Test results from paper PMC5428020 (Chemical Science, 2017).

Experiment: Water solubility as observed during handling, NMR and crystallization
Assay type: physicochemical

Substance: Fmoc–Q^SO3H–OH [Compound 14]
- solubility in water (in words): surprisingly high
